Where no end group is shown, it is not given here.
Tests used:
[1] = system: autologous blood infusion-induced ICH rats; test: modified Neurological Severity Score (mNSS), autologous blood infusion ICH model; format: in vivo
Experimental: The ICH refers to hemorrhage in the striatum, a part of the brain. Male Sprague-Dawley rats (250-300 g) anesthetized with chloral hydrate (0.4 g kg^−1 i.p., Sigma-Aldrich, St. Louis, Mo., USA). The blood infusion model of ICH was induced by intrastriatal (0.0 mm posterior, 3.0 mm right, 5.0 mm ventral to bregma skull surface) infusion of autologous blood (100 μl within 1 minute) and stereotaxic administration of bacterial collagenase VII-S into the striatum (MacLellan et al. 2008; Rosenberg et al. 1990). Briefly, bacterial collagenase VII-S (0.23 U in 1.0 μl sterile saline, Sigma-Aldrich) was infused into the striatum over a period of 10 minutes. The needle was kept in place for another 10 minutes to prevent backflow. The craniotomies were sealed with bone wax. The rats were allowed to recover in separate cages at room temperature.
Rats were used in the assessment of the neurological abnormalities with a modified Neurological Severity Score (mNSS) method (Chen et al. 2001) by an investigator blinded to the experimental treatment scheme. The mNSS is a composite test of motor, sensory, and balance functions. The assessment was performed before and on 1, 3 and 7 days after the ICH. Neurological functions were graded on a scale of 0-18 (normal score, 0; maximal deficit score, 18).

[2] = system: collagenase-induced ICH rats; test: Assessment of blood-brain barrier disruption (Evans blue extravasation); format: in vivo
Experimental: Rats were randomly used in assessment of the vascular permeability of BBB with a modified Evans blue extravasation method (Esen et al., 2005). Briefly, 70 hours post-ICH, rats were anesthetized with chloral hydrate (0.4 g/kg) and infused, via the right femoral vein with 37° C. Evans blue dyes (2% in 0.9% normal saline, 4 ml/kg) over 5 minutes. Two hours later, the rats were perfused with 300 ml normal saline to wash out any remaining dye in the blood vessels and then brains were removed and sectioned into 2 mm thickness by a rodent brain matrix. Coronal brain sections were taken starting at +2 mm and ending at −4 mm from Bregma. BBB permeability was evaluated in the striatum, cortex and cerebellum. The cerebellum was used as an internal control. Each portion was weighed immediately and placed in 1 ml of 0.9% normal saline for homogenization of the sample. For protein precipitation, 1 ml of 60% trichloroacetic acid solution was added and vortexed for 2 minutes. The mixture was subsequently cooled for 30 minutes and centrifuged (1500 g at 4° C.) for another 30 minutes. The absorbance of Evans blue in the supernatant was then measured with a spectrophotometer (Molecular Devices OptiMax, USA) at 610 nm The dye concentration was expressed as μg/g of tissue weight and calculated from a standard curve obtained from known amounts of the dye.

[3] = system: collagenase-induced ICH rats; test: Assessment of hemorrhagic volume (spectrophotometric assay); format: in vivo
Experimental: Rats were randomly used in assessment of hemorrhagic volume at 24 hours (day 1) post-ICH. The accumulated hemorrhagic volume was quantified by a spectrophotometric assay as reported by Park et al., with minor modification (Park et al., 2005). Briefly, both contralateral and ipsilateral hemispheres were obtained after transcardial perfusion. PBS was added to the individual hemispheres to make-up a total of 3 ml volume for homogenization and centrifugation (15000 g, 30 minutes). The supernatant (40 μl) was reacted with Drabkin's reagent (160 μl, Sigma) for 15 minutes at room temperature. Optical density was measured at 540 nm with a spectrophotometer (Molecular Devices OptiMax, USA). Equivalent hemorrhage volume (μl) of the supernatant was calculated from a standard curve obtained with known amounts of the blood.

[4] = system: collagenase-induced ICH rats; test: Morphometric measurement of lesion volume / injured area; format: in vivo; settings: for injured area: UCN 5 μg i.c.v.
From the text: […] The brains were cut coronally through the needle entry site (identifiable on the brain surface), and then serially sliced (2-mm thickness) anteriorly and posteriorly to the needle entry site. Digital photographs of the serial slices were taken and lesion volume was computed using image analyzer program (Image J, NIH). The total lesion volume (mm^3) was computed by summing the residual blood clot and damaged area in each section and multiplying by the distance between sections (Jung et al., 2004).

NeuN+ cells (neurons) = test: Immunohistochemistry of neuronal loss (NeuN); format: in vivo, rats; settings: perihematomal region; L-UCN 2.5 μg/kg i.p.; day 3 post-ICH
Experimental: (§1) Rats were used in immunohistochemistry on day 3 post-ICH. Rats were anesthetized as described above and transcardially perfused with cold 0.1 M phosphate buffer saline followed by cold 4% paraformaldehyde in 0.1 M phosphate-buffered saline. Brains were removed and immersed in 4% paraformaldehyde for 24 hours and 30% sucrose for another 24 hours. Coronal brain sections (20 μm thickness) were cut and collected from 0.0 to −2.0 mm AP to bregma using a cryostat (Leica CM 1900). Three 20 μm coronal sections, representing the core of the hematoma, were taken starting at 0.0 mm from bregma (the needle entry site). Additional adjacent serial coronal sections taken through the center of the hemorrhagic lesion were processed for the counting of marker-specific cells (Jung et al., 2004). Antibodies of OX-42 (1:100; BD, USA), ED-1 (1:100; BD, USA) were used as microglial markers, and NeuN (1:200, Chemicon, USA) was used as neuron marker. Tissues sections were incubated with the primary antibodies overnight at 4° C. […] The numbers of positive cells in the same focal plane were counted in 6 regions of interest around the ipsilateral striatum (perihematomal region, 1 mm^2) All cell counting was done by an independent investigator counted the positive cells.

microglial cells = test: Immunohistochemistry of microglial activation (OX-42, ED-1); format: in vivo, rats; settings: perihematomal region; L-UCN 2.5 μg/kg i.p.; day 3 post-ICH
Experimental: as §1

## urocortin (DNPSLSIDLTFHLLRTLLELARTQSQRERAEQNRIIFDSV; ends and bridges not checked; UniProt P55089 83-122, looked up) [UCN, a 40-amino-acid endogenous neuropeptide, belongs to the corticotrophin releasing hormone (CRH) family]
[1]; UCN 2.5 μg/kg i.p. 60 min after blood infusion ICH, vs ICH+Saline
  mNSS: greater reduction in mNSS
[1]; UCN 5 μg i.c.v. 1 h after blood infusion ICH, vs saline
  mNSS: greater reduction in mNSS
[2]; cerebellum, contralateral cerebral cortex and striatum, L-UCN 2.5 μg/kg i.p., day 3
  Evans blue dye concentration: not changed
[2]; contralateral striatum, contralateral and ipsilateral cortices, cerebellum, UCN 5 μg i.c.v., day 3, vs ICH+Saline
  Evans blue dye concentration: not different
[2]; ipsilateral cortex, L-UCN 2.5 μg/kg i.p., day 3 post-ICH
  Evans blue dye concentration: 0.38 ± 0.05 µg/g
[2]; ipsilateral striatum, L-UCN 2.5 μg/kg i.p., day 3 post-ICH
  Evans blue dye concentration: 1.73 ± 0.36 µg/g
[2]; ipsilateral striatum, UCN 5 μg i.c.v., day 3 after ICH
  Evans blue concentration: 1.24 ± 0.31 µg/g
[3]; L-UCN 2.5 μg/kg i.p., day 1 post-ICH, vs ICH+Saline
  hemorrhagic volume: not significantly different
[3]; UCN 5 μg i.c.v., 24 h post-ICH, vs ICH+saline
  accumulated hemorrhagic volume: not significantly different
[4]; L-UCN 2.5 μg/kg i.p., day 3 post-ICH
  lesion volume: 23.73±1.79 mm^3
[4]; day 3 after ICH
  injured area: 16.14±1.22 mm^2
[4]; day 7 after ICH
  injured area: 5.62±1.04 mm^2
NeuN+ cells (neurons)
  NeuN+ cells: 397.00±39.74 cells/6 mm^2
Microglial cells
  number of ED-1+ cells: 28.50±2.65 cells/6 mm^2
  number of OX-42+ microglial cells: 82.00±22.86 cells/6 mm^2

From US8802630B2, “Method of treating brain injury” (Buddhist Tzu Chi General Hospital, priority 2011, dated 2014)
